We go through 4 compounds from patent publication US8609413B2, “Neurons, astrocytes and oligodendrocytes differentiated from a mammalian pluripotent or neural stem cells exposed to a pyridine deriviative” (Research Development Foundation, priority 2007, dated 2013).

Test [1] concerns human ESC-derived NPC / ESC aggregates. Description: Air/liquid interface three-dimensional culture with added factors. Type of test: cell-based. Conditions: exogenously added factor. The source says:
Air/liquid interface expansion/differentiation of NPC may be performed via the following protocol. One or more rosettes-enriched clusters may be manually removed and multiple clusters (e.g., about 5-10 clusters) may be plated on a hydrophilic polytetrafluoroethylene (PTFE) membrane (e.g., 6 mm diameter, 0.4 μm, BioCell-Interface, La Chaux-de-Fonds, Switzerland). This membrane may be deposited on a Millicell®-CM (0.4 μm) Culture Plate Insert (Millipore) (FIG. 5A). N2 medium may preferably be added (e.g., about 1 ml) underneath the membrane insert.
Air/liquid interface expansion/differentiation of NPC. Rosettes-enriched cluster were manually removed and 5-10 clusters were plated on a hydrophilic polytetrafluoroethylene (PTFE) membrane (6 mm diameter, 0.4 μm, BioCell-Interface, La Chaux-de-Fonds, Switzerland). This membrane was deposited on a Millicell®-CM (0.4 μm) Culture Plate Insert (Millipore) (FIG. 1). One ml of N2 medium was added underneath the membrane insert.

The test system of another test is human ES cells. Kind of test: TWS119 tested by the inventors on human ES cells. Type of test: cell-based.
The test system of a further test is mouse ES cells. Conditions: literature reports; cited from earlier work.

As for EGF: epidermal growth factor, in test [1], the “phenotype of engineered tissue” value is “did not induce phenotypic changes” and the “size of engineered tissue” value was “moderate increase”.

In the case of `Nc1cccc(-c2cc3c(Oc4cccc(O)c4)ncnc3[nH]2)c1` [TWS119], in the test with human ES cells, the cell growth entry is recorded as “decreased cell growth” and the neuronal differentiation entry is “only small effect on neuronal differentiation”. The “neuronal differentiation of mouse ES cells” value in the test on mouse ES cells was “enhanced neuronal differentiation of mouse ES cells”.

On to `Cc1cccc(C#Cc2ccccc2)n1` [MPEP, 2-methyl-6-(phenylethynyl)-pyridine], for which the “neuronal differentiation of mouse ES cells” value in the test with mouse ES cells is “enhances their differentiation towards neurons”.

Consider “FGF-2: basic fibroblast growth factor, exogenously added growth factor”, for which, in test [1], the “phenotype of engineered tissue” value is on record as “did not induce phenotypic changes” and the “size of engineered tissue” value is “moderate increase”.
